Source: patent publication US20010033841A1, “Modulating platelet function” (priority 1998, published 2001)

Key:
human platelets [1] = assay: SDF-1 induced calcium flux in fura-2 loaded platelets; format: cell-based; settings: SDF-1 50-100 nM, fura-2 340/380 ratio
Experimental: Calcium flux. Fura-2 loaded platelets were prepared from acid citrate dextrose anti-coagulated blood (Rink et al., J. Physiol. 393: 513-24, 1987). PRP was collected by centrifugation for 15 minutes at 200 g and 100 μM aspirin was added. Platelets were then loaded with fura-2 by incubating PRP with 2 μM acetoxymethyl ester of fura-2 (fura-2 AM; Molecular Probes, Inc., Eugene, Oreg.) for 45 minutes at 37° C. in the dark. PRP was then centrifuged at 1500 g for 10 minutes and the pellet washed and resuspended in a buffer containing 145 mM NaCl, 4 mM KCl, 1 mM NaH2PO4, 0.8 mM MgCl2, 1.8 mM CaCl2, 25 mM Hepes and 22 mM glucose. Changes in cytosolic free calcium were determined after addition of SDF-1 (500 or 1000 ng/ml) by monitoring the excitation fluorescence intensity emitted at 510 nm in response to sequential excitation at 340 nm and 380 nm using a Delta RAM (Random Access Monochromator) fluorimeter (Photon Technology International, Monmouth Junction, N.J.). The data are presented as the relative ratio of fluorescence at 340/380 nm.

human platelets [2] = assay: Chemokine-induced platelet aggregation in platelet rich plasma (aggregometer); format: cell-based
Experimental: (§1) Blood collection and platelet preparation. Human blood was collected from antecubital veins of healthy male or female, aspirin-free volunteers into syringes containing heparin (10 units/ml final concentration) for flow cytometry studies or sodium citrate (0.38% final concentration) for aggregation studies. Platelet rich plasma (PRP) was prepared by centrifugation of whole blood at 150 g for 15 minutes. Platelet poor plasma (PPP) was prepared by centrifugation of PRP at 1200 g for 15 minutes.
(§2) Aggregation studies. Experiments were performed using a Chrono-Log model 560 vs or 490-2D aggregometer (Havertown, Pa.). Aliquots of PRP (0.50 ml or 0.45 ml) with a platelet concentration of […] were incubated at 37° C. and stirred at 1000 rpm. Chemokines (PeproTech Inc., Rocky Hill, N.J., except SDF-1β, which was obtained from Genetics Institute, Boston, Mass.) were added and aggregation was measured as a percent change in optical density, with the instrument calibrated to yield 0% change in optical density for PRP and with the PPP 100% standard for change in optical density. Aggregation scale was set so that maximal aggregation gave 85-90% chart deflection. Inhibition experiments were done using CXCR4 mAb 12G5 (R&D, Minneapolis, Minn.), polyclonal anti-SDF-1 (R&D, Minneapolis, Minn.), pertussis toxin (Sigma, St. Louis, Mo.), wortmannin (Sigma), genestein (Sigma), and aspirin (Sigma). DMSO was used as vehicle for genestein and wortmannin and 1N NaOH was used as a vehicle for aspirin.

[3] = tested on: resting T-cells, monocytes, B cell precursors, natural killer cells and CD34+ stem cells; settings: Bleul et al. 1996; Campbell et al. 1998; cited from earlier work
[4] = tested on: SDF-1 induced platelet aggregation; assay: Inhibition of SDF-1 induced platelet aggregation; format: cell-based, human
Experimental: as §1, §2

For “SDF-1: chemokine stromal derived factor-1; α or β form not specified at the place”, the “increase in cytosolic calcium” value (human platelets [1]) was “induced an increase in cytosolic calcium”, the “induction of platelet aggregation” value (human platelets [2]; 40 nM chemokine, FIG. 1A) was “induced platelet aggregation” and the “donors responding with only primary aggregation” value (human platelets [2]; out of twelve donors tested) was “two”. The “donors with full primary and secondary aggregation response” value (human platelets [2]; out of twelve donors tested) was “ten” and the “concentration giving maximal chemotaxis” value [3] was 10 to 100 nM.

In the case of SDF-1α, the “concentration at which a primary and secondary response was observed” value (human platelets [2]; FIGS. 1B and 1C) was 12.5 to 25 nM and the “concentration that only induced the primary phase of aggregation” value (human platelets [2]; FIGS. 1B and 1C) was 6.2 nM.

With `O=c1c(-c2ccc(O)cc2)coc2cc(O)cc(O)c12` [Genestein, genestein] the “effect on SDF-1 induced platelet aggregation” value (from here on “effect”) ([4]; genestein 200 μM, 5 minutes preincubation, FIG. 5B) was “decreased SDF-1 platelet aggregation”.

In the case of pertussis toxin, the “effect” value ([4]; pertussis toxin 1.7 nM, 30 minute preincubation, SDF-1α 80 ng/ml, FIG. 4B) was “blocked”.

With `CC(=O)Oc1ccccc1C(=O)O` [Aspirin, aspirin] the “effect” value ([4]; aspirin 1 mM, FIG. 5A) was “inhibited SDF-1 induced secondary aggregation”.
